Results reported in patent US6518401B2, “Tumor necrosis factor stimulated gene 6 (TSG-6) protein” (New York University, priority 1991, dated 2003).

Key:
TSG-37 (MT-II) mRNA = assay: Northern blot analysis of TSG mRNA levels in FS-4 cells; format: cell-based, human; settings: growth arrested FS-4 cells, 2 h; TNF 20 ng/ml, CHX 10 ug/ml, IFN-β 500 U/ml, IFN-γ 100 U/ml, IL-1-α 1 ng/ml, EGF 25 ng/ml, TGF-β 2 ng/ml, poly(I).poly(C) 50 ug/ml, TPA 100 ng/ml, A23187 1 uM, forskolin 10 uM, dBcAMP 100 uM, IBMX 100 uM
Procedure: (§1) The human diploid FS-4 foreskin fibroblast cell line (Vilcek, J. et al, Proc. Natl. Acad. Sci. USA 70:3909-3913 (1973)) was used at passage level 15 in all experiments. FS-4 cells were grown in Eagle minimal essential medium (E-MEM) supplemented with 6 mM HEPES, 3 mM Tricine, 50 μg/ml gentamicin, and 5% heat inactivated (56° C., 30 min) fetal bovine serum (FBS; GIBCO Laboratories, Grand Island, N.Y.). For experiments, 4×10^6 cells were seeded in 175 cm^2 Falcon flasks, incubated at 37° C., and allowed to grow to confluence over 6 days. The confluent monolayers were washed once with phosphate buffered saline and replenished with E-MEM containing […] FBS. The cultures were incubated in this medium for another 72 h at 37° C. to let the cells become quiescent and then treated with the appropriate agents, as specified herein.
(§2) Cytoplasmic RNA was fractionated on a 1% agarose gel containing formaldehyde and blotted onto Zeta-probe blotting membranes (Bio-Rad Laboratories, Richmond, Calif.). Cytoplasmic RNA was loaded at 10 μg/lane. Prehybridization and hybridization of Northern blots were performed as described (Lin, J.-X. et al, supra). Filters were probed with 32P-labeled cDNA insert from recombinant M13 clones and/or with 32P-labeled internal reference pHe7 insert. Northern blots were quantified with a laser densitometer.
(§3) The increase in mRNA levels ranged from about 3-fold (TSG-21) to over 100-fold (TSG-6 and TSG-8).
(§4) Table 3 provides a summary of a large number of experiments in which levels of mRNAs corresponding to the 8 distinct TSG cDNAs were determined in FS-4 cells exposed to various agents by Northern blot analysis. Three of the mRNAs (corresponding to TSG-8, TSG-12 and TSG-14) were inducible by the protein synthesis inhibitor, cycloheximide (CHX). […] In contrast, induction of the remaining 3 mRNAs by TNF was inhibited or reduced in the presence of CHX. Five of the mRNAs were inducible by IFN-β, but only two of these responded to […]. Simultaneous treatment with IFN-β reduced inducibility of TSG-1 (=IL-8) mRNA by TNF, but increased the inducibility of TSG-6 and TSG-37 mRNAs. All mRNAs were inducible by IL-1 and by the doublestranded RNA poly(I)-poly(C) or the phorbol ester 12-O-tetradecanoyl phorbol 13-acetate (TPA), but the efficiency of induction by these agents varied. Epidermal growth factor (EGF) was moderately efficient in increasing TSG-21 (=collagenase) and TSG-27 (=stromelysin) mRNA levels, and weakly stimulated several other mRNAs. PDGF and transforming growth factor-β (TGF-β) were only weakly effective, as were dibutyryl cyclic AMP (dBcAMP) and the phosphodiesterase inhibitor, isobutyl methyl xanthine (IBMX).

TSG-1 (IL-8) mRNA = assay: as above; format: cell-based, human; settings: growth arrested FS-4 cells, 2 h; TNF 20 ng/ml, CHX 10 ug/ml, IFN-β 500 U/ml, IFN-γ 100 U/ml, IL-1-α 1 ng/ml, EGF 25 ng/ml, TGF-β 2 ng/ml, poly(I).poly(C) 50 ug/ml, TPA 100 ng/ml, A23187 1 uM, forskolin 10 uM, dBcAMP 100 uM, IBMX 100 uM
Procedure: as §1, §2, §3, §4

TSG-14 mRNA = assay: as above; format: cell-based, human; settings: growth arrested FS-4 cells, 2 h; TNF 20 ng/ml, CHX 10 ug/ml, IFN-β 500 U/ml, IFN-γ 100 U/ml, IL-1-α 1 ng/ml, EGF 25 ng/ml, TGF-β 2 ng/ml, poly(I).poly(C) 50 ug/ml, TPA 100 ng/ml, A23187 1 uM, forskolin 10 uM, dBcAMP 100 uM, IBMX 100 uM
Procedure: as §1, §2, §3, §4

TSG-12 mRNA = assay: as above; format: cell-based, human; settings: growth arrested FS-4 cells, 2 h; TNF 20 ng/ml, CHX 10 ug/ml, IFN-β 500 U/ml, IFN-γ 100 U/ml, IL-1-α 1 ng/ml, EGF 25 ng/ml, TGF-β 2 ng/ml, poly(I).poly(C) 50 ug/ml, TPA 100 ng/ml, A23187 1 uM, forskolin 10 uM, dBcAMP 100 uM, IBMX 100 uM
Procedure: as §1, §2, §3, §4

TSG-8 (MCAF) mRNA = assay: as above; format: cell-based, human; settings: growth arrested FS-4 cells, 2 h; TNF 20 ng/ml, CHX 10 ug/ml, IFN-β 500 U/ml, IFN-γ 100 U/ml, IL-1-α 1 ng/ml, EGF 25 ng/ml, TGF-β 2 ng/ml, poly(I).poly(C) 50 ug/ml, TPA 100 ng/ml, A23187 1 uM, forskolin 10 uM, dBcAMP 100 uM, IBMX 100 uM
Procedure: as §1, §2, §3, §4

TSG-6 mRNA = assay: as above; format: cell-based, human; settings: growth arrested FS-4 cells, 2 h; TNF 20 ng/ml, CHX 10 ug/ml, IFN-β 500 U/ml, IFN-γ 100 U/ml, IL-1-α 1 ng/ml, EGF 25 ng/ml, TGF-β 2 ng/ml, poly(I).poly(C) 50 ug/ml, TPA 100 ng/ml, A23187 1 uM, forskolin 10 uM, dBcAMP 100 uM, IBMX 100 uM
Procedure: as §1, §2, §3, §4

[1] = system: TSG-21 (Collagenase) mRNA; assay: as above; format: cell-based, human; settings: growth arrested FS-4 cells, 16 h of treatment; TNF 20 ng/ml, CHX 10 ug/ml, IFN-β 500 U/ml, IFN-γ 100 U/ml, IL-1-α 1 ng/ml, EGF 25 ng/ml, TGF-β 2 ng/ml, poly(I).poly(C) 50 ug/ml, TPA 100 ng/ml, forskolin 10 uM, IBMX 100 uM
Procedure: as §1, §2, §3, §4

[2] = system: TSG-27 (Stromelysin) mRNA; assay: as above; format: cell-based, human; settings: growth arrested FS-4 cells, 16 h of treatment; TNF 20 ng/ml, CHX 10 ug/ml, IFN-β 500 U/ml, IFN-γ 100 U/ml, IL-1-α 1 ng/ml, EGF 25 ng/ml, TGF-β 2 ng/ml, poly(I).poly(C) 50 ug/ml, TPA 100 ng/ml, forskolin 10 uM, IBMX 100 uM
Procedure: as §1, §2, §3, §4

[3] = Stability of the TSG-6/IαI complex to denaturants and enzymes; format: physicochemical
Procedure: 100 μL of a TN-5 B insect cell culture supernatant containing TSG-6 protein was incubated with 100 μL of a 1:50 dilution of human serum for 1 hr. at 37° C. Thereafter, one 100-μL aliquot was mixed with 2 mL of 8 M urea and concentrated in a Centricon-10 unit to 100 μL (lane 2); the other aliquot was left untreated (lane 1). The reaction mixtures were then separated by SDS-PAGE and subjected to Western blot analysis with anti-TSG-6 antibody.
Partially purified IαI was incubated in the absence (lane 1) or presence of purified TSG-6 protein (lanes 3-5) at 37° C. for 1 hr. The sample containing both IαI and TSG-6 protein was divided into aliquots and further incubated without enzyme (lane 3), with 800 milliunits of chondroitin sulfate ABC lyase (lane 4), or with 1.6 units of hyaluronidase (lane 5). Lane 2 is a TSG-6 control without IαI. The reaction mixtures were separated by SDS-PAGE and analyzed by Western blotting with anti-TSG-6 antibody.
The Stable Crosslink in the TSG-6/IαI COmplex is Provided by a Gylcosaminoglycan Chain. The stability of the 120 kDa TSG-6/IαI complex during SDS-PAGE under reducing conditions raises the question of the nature of the interaction between TSG-6 and the other components of the complex.
It is known that the three polypeptide chains of IαI are cross-linked by a chondroitin sulfate chain (Enghild et al, J. Biol. Chem. 264:15975-15981 (1989); Jenssen et al, FEBS Lett. 230:195-200 (1988); Balduyck et al, Biol. Chem. Hoppe-Seyler 370:329-336 (1989). It has been shown that bikunin, HC2 of IαLI, and HC3 of pre-α-inhibitor (PαI) are covalently bound to chondroitin 4-sulfate (Enghild et al, J. Biol. Chem. 264:15975-15981 (1989); J. Bio. Chem. 266:747-751 (1991); J. Biol. Chem. 268:8711-8716 (1993). To determine if cross-linking via chondroitin sulfate is also required for the stability of the TSG-6/IαI complex, purified TSG-6 protein and IαI were first incubated together to allow the formation of the complex and then treated with chondroitin sulfate ABC lyase from Proteus vulgaris or hyaluronidase from Streptomyces hyalurolyticus.

Molecule	Relative Increase in mRNA Level TSG-37 (MT-II) (TSG-37 (MT-II) mRNA)	Relative Increase in mRNA Level TSG-1 (IL-8) (TSG-1 (IL-8) mRNA)	Relative Increase in mRNA Level TSG-14 (TSG-14 mRNA)	Relative Increase in mRNA Level TSG-12 (TSG-12 mRNA)	Relative Increase in mRNA Level TSG-8 (MCAF) (TSG-8 (MCAF) mRNA)	Relative Increase in mRNA Level TSG-6 (TSG-6 mRNA)	Relative Increase in mRNA Level TSG-21 (Collagenase) [1]	Relative Increase in mRNA Level TSG-27 (Stromelysin) [2]	stability of the 120-kDa complex to 8 M urea ([3]; 8 M urea added before SDS-PAGE)	stability of the complex to boiling in 2% SDS and 5% β-mercaptoethanol ([3]; SDS-PAGE under reducing conditions)	effect of chondroitin sulfate ABC lyase on the complex ([3]; preformed complex treated with chondroitin sulfate ABC lyase from Proteus vulgaris)	effect of hyaluronidase on the complex ([3]; preformed complex treated with hyaluronidase from Streptomyces hyalurolyticus)	stability of the complex to 8 M guanidine hydrochloride ([3]; treatment with 8 M guanidine hydrochloride, Western blot)
CNc1ccc2oc(C[C@H]3O[C@@]4(CC[C@H]3C)O[C@H]([C@H](C)C(=O)c3ccc[nH]3)[C@H](C)C[C@H]4C)nc2c1C(=O)O [A23187]	0	+	0	++	++	+	–	–	–	–	–	–	–
C[C@@H]1C[C@@H]([C@H](O)CC2CC(=O)NC(=O)C2)C(=O)[C@@H](C)C1 [CHX, cycloheximide]	0	0	+	+++	+	0	0	0	–	–	–	–	–
C=C[C@@]1(C)CC(=O)[C@]2(O)[C@@]3(C)[C@@H](O)CCC(C)(C)[C@@H]3[C@H](O)[C@H](OC(C)=O)[C@@]2(C)O1 [Forskolin, forskolin]	0	0	0	0	0	–	0	0	–	–	–	–	–
CCCCCCCCCCCCCC(=O)O[C@@H]1[C@@H](C)[C@@]2(O)[C@@H](C=C(CO)C[C@]3(O)C(=O)C(C)=C[C@@H]23)[C@@H]2C(C)(C)[C@]12OC(C)=O [TPA, 12-O-tetradecanoylphorbol 13-acetate]	+	+	+	++	++	+	++++	++++	–	–	–	–	–
CCCC(=O)Nc1ncnc2c1ncn2[C@@H]1O[C@@H]2COP(=O)(O)O[C@H]2[C@H]1OC(=O)CCC [dBcAMP, N^6-2′-O-dibutyl adenosine cyclic 3′,5′-monophosphate]	–	0	0	+	+	0	–	–	–	–	–	–	–
EGF: Epidermal growth factor	+	0	+	+	+	0	++	++	–	–	–	–	–
IFN-γ: E. coli-derived human gamma interferon	0	0	0	+	++	0	0	0	–	–	–	–	–
PDGF	0	0	+	+	+	0	0	0	–	–	–	–	–
TGF-β	0	0	0	0	–	0	0	0	–	–	–	–	–
TSG-6/IαI complex: stable 120 kDa complex containing TSG-6 protein, bikunin and HC2 of IαI	–	–	–	–	–	–	–	–	did not affect	resistance	complete disappearance of the complex	no effect	still detectable
